Experimental data taken from US7482427B2, “Positive modulator of bone morphogenic protein-2” (BioSurface Engineering Technologies, Inc., priority 2002, dated 2009).

Columns and labels:
[1] = test system: C2C12 cells; experiment: Alkaline phosphatase (ALP) activity assay in C2C12 cells; type: cell-based, Mouse; details: for induction of ALP by growth factor in the presence of B2A2: B2A2 1000 ng/mL, FGF-2 50 ng/mL, VEGF 25 ng/mL, TGF-β1 50 pg/mL, 3 days
Description: Alkaline phosphatase (ALP) Activity Assay. C2C12 cells and C3H10T½ cells were cultured at 37° C. in a humidified atmosphere of 5% CO2 and 95% air, with DMEM/F12 medium supplemented with 10% serum, penicillin/streptomycin. […] At 4-5 days post induction, ALP activity was determined as described by Akiyama and colleagues (Akiyama et al. 1997, Exp Cell Res 235(2):362-9.) with modifications. Briefly, cells were washed once with phosphate-buffered saline (PBS) and lysed with 0.1% Triton×100 in 10 mM Tris HCl, pH 9.0. Protein concentration was determined using the BCA Protein Assay Kit (Pierce Biotechnology, Rockford, Ill.). Then ALP activity was measured by adding ALP buffer (1 M diethanolamine, 0.5 mM MgCl2, 1 mg/mL p-nitrophenylphosphate, pH 9.0), incubating in 37° C., and absorbance (405 nm) read at 15, 30 and 60 minutes using a microplate spectrophotometer (Molecular Devices, Sunnyvale, Calif.). The activity was expressed as O.D. per mg protein per hour.
B2A2 was tested to determine whether B2A2 enhanced the biological effects of CHO-produced rhBMP-2. […] Points represent means of quintuplicate determinations±SD.
B2A2 was tested in combination with other growth factors including FGF-2, VEGF, and tGF-β1 for induction of ALP in C2C12 cells. […] Mouse C2C12 cells were cultured as described for FIG. 1A, treated with a combination of various growth factors plus or minus B2A2, incubated for 3 days, and then assayed for ALP activity as described for FIG. 1A. […] Bars represent means of quintuplicate determinations±SD.
Mouse C2C12 cells were cultured as before and B2A2 (1000 ng/mL) was added to some wells. After a 45 minute incubation all wells were rinsed with fresh medium and the medium was replaced. […] After 5 days ALP activity was measured. […] Data is the means of triplicates±SD.
In FIG. 5A, a polystyrene surface of 96-well plates were first coated by silyl-heparin (open bars), followed by a 1 μg/mL solution of B2A2 (solid bars) in PBS for (1 hr at 37° C.) and rinsed in PBS and dried at room temperature. […] ALP activity was measured five days later. Data is the means of triplicates±SD.
In FIG. 5B, stainless steel wafers were first coated with silyl-heparin (open bars) followed by 100 μg/mL B2A2 in PBS as a second coating (solid bars) and rinsed in PBS and dried at room temperature. Wafers were coated separately in wells of a 24-well plate and transferred to a fresh untreated plate prior to cell seeding.
ALP activity was measured five days later. Data is the means of triplicates±SD.

[2] = test system: C3H10T½, MC3T3 cells or hFOB; experiment: Cell migration across simulated wound margin, positive control (cell line not specified); type: cell-based; details: positive control reference, FGF-2 50 ng/mL, 6 hours (data not shown)
Description: Cell migration. For studies involving migration across a wound margin, the cells were grown in vitro and used when approximately 90% confluent. A simulated wound was made by scraping cells away from the cultureware surface. The cultures were rinsed to remove unbound cells, and then incubated in DMEM:F12 medium containing 2% newborn calf serum with or without peptide. FGF-2 (50 ng/mL) was used as a positive control reference material. The cells were allowed to migrate for 6 hours after which the cells were fixed in buffered formalin. Migration was monitored via phase contrast microscopy. Migrating cells were those that had migrated across the site of the simulated wound margin.
B2A2-K-NS was tested for its ability to induce cells of preosteoblast origin to migrate to a stimulated wound margin. Murine C3H10T½, MC3T3 cells or hFOB were grown to near confluency in vitro. A stimulated wound was made by scraping the cells away from the substrate. The cells were allowed to migrate for 6 hours after which migration was monitored via microscopy. Statistical significance was determined using ANOVA followed by post hoc testing using multiple comparison versus control group (Dunnett's Method). […] Table 3 summarizes the increase in migrating cells at the simulated wound margin induced by about 0.2 to 2.0 μg/mL B2A2-K-NS.

[3] = test system: BMPR and ActivinR isoforms; experiment: Solid phase receptor binding assay, panel of receptor/Fc chimeras; details: insulin adsorbed to plates; Endostatin-Fc as unrelated chimeric protein
Description: Receptor binding assays. Binding to BMP receptors in a solid phase binding assay. B2A2 was absorded onto ELISA plates to saturation, soluble BMP receptor-immunoglobin Fc fusion proteins were added, and bound receptor was detected by HRP-conjugated anti-Fc antibody and colorimetric assay, values shown are background substracted. Specific binding of B2A2 to different receptor isoforms of the BMPR and Activin Receptor family were tested, employing the receptor-Fc chimeras shown. […] Bound receptor was displaced by the addition of rhBMP-2 at the levels indicated.
The compound of Example 2 was tested for specific binding to Bone Morphogenic Protein-2 receptors. Referring now to FIG. 12, results of solid phase receptor binding assays utilizing purified receptor/Fc chimeric molecules are illustrated. The chimeras are recombinant constructs of the soluble ectodomain of various receptor molecules (BMPR and ActivinR isoforms) fused to the carboxyl-terminal of the human IgG1 Fc region via a polypeptide liner. ELISA plates were coated with B2A2 or control compounds, soluble chimeric receptor/Fc antibody and quantified with a colorimeteric ELISA.

For “FGF-2: growth factor, positive control reference material for migration (50 ng/mL)”, the “induction of ALP by growth factor in the presence of B2A2” value (“induction of ALP by growth factor” for short) [1] was “failed to induce ALP” and the “migrating cells compared to controls” value [2] was “significant increase in migrating cells”.
With Insulin the “binding of negative controls” value [3] was “did not bind”.
For “TGF-B: growth factor purchased from Sigma Aldrich, tested in combination with B2A2”, the “induction of ALP by growth factor” value [1] was “failed to induce ALP”.
VEGF was tested, and the “induction of ALP by growth factor” value [1] was “failed to induce ALP”.
“benzyl-tetra(dimethylsilylmethyl)oxycarbamoyl-heparin [silyl-heparin, reference compound]” was tested, and the “ALP activity on coated polystyrene surface” value ([1]; silyl-heparin coating alone, BMP-2 50 ng/mL in solution, 5 days) was “potentiates BMP-2 activity”.
